Consider 23 molecules from patent US20040266766A1, “Selective urokinase inhibitors” (Wilex AG, priority 2001, published 2004).

Counter-ions that a name gives are not always drawn.

What is called Ki is the equilibrium dissociation constant of an inhibitor or competing ligand from its target.

The first experiment addresses T1, urokinase (uPA) (Homo sapiens, UniProt P00749).
T1 construct: purchased Calbiochem-Novabiochem GmbH, Bad Soden, Germany
In words: In vitro inhibition of urokinase (Ki according to Dixon, chromogenic substrate). It counts as biochemical.
Conditions: not given
The method, then: In order to determine the inhibitory activity, 200 μl Tris buffer (0.05 mol/l containing the inhibitor, 0.154 mol/l NaCl, pH 8.0), 25 μl substrate (Pefachrome uPA, Pefachrome PL or Pefabloc TH in H2O; Pentapharm Ltd, Basle, Switzerland) and 50 μl urokinase (Calbiochem-Novabiochem GmbH, Bad Soden, Germany) or another appropriate protease e.g. plasmin, thrombin or FXa are incubated for 10 minutes at 30° C. After ca. 30 minutes and 30 cycles the absorption is determined at 405 nm by means of a microplate reader (Mediators PHL, Aureon Biosystems, Vienna, Austria). The Ki values were determined according to Dixon by linear regression using a computer program.
As to `N=C(N)Nc1ccc(CNC(=O)CNC(=O)C(CO)NC(=O)Nc2cccc(Cl)c2)cc1` (stereo not drawn) [WX-C292, 3-Chlorophenyl-aminocarbonyl-(D)-Ser-Gly-(4-guanidinobenzyl)amide hydrochloride], the “Ki uPA” value was “no inh. *)”.

With `N=C(N)Nc1ccc(CNC(=O)CNC(=O)C(CO)NC(=O)Nc2ccccc2Cl)cc1` (stereo not drawn) [WX-C304, 2-Chlorophenyl-aminocarbonyl-(D)-Ser-Gly-(4-guanidinobenzyl)amide hydrochloride], the “Ki uPA” value is listed as “no inh. *)”.

With `CC(=O)c1cccc(NC(=O)NC(CO)C(=O)NCC(=O)NCc2ccc(NC(=N)N)cc2)c1` (stereo not drawn) [WX-C314, 3-Acetylphenyl-aminocarbonyl-(D)-Ser-Gly-(4-guanidinobenzyl)amide hydrochloride], the “Ki uPA” value is listed as “no inh. *)”.

The experiment is the same for the next values; noted with them: read-out: Ki uPA.
With `N=C(N)Nc1ccc(CNC(=O)CNC(=O)C(CO)NC(=O)Nc2ccccc2Br)cc1` (stereo not drawn) [WX-C322, 2-Bromophenyl-aminocarbonyl-(D)-Ser-Gly-(4-guanidinobenzyl)amide hydrochloride], the Ki was over 20 µM.

Regarding `CCOC(=O)c1ccc(NC(=O)NC(CO)C(=O)NCC(=O)NCc2ccc(NC(=N)N)cc2)cc1` (stereo not drawn) [WX-C336, 4-Ethyloxycarbonylphenyl-aminocarbonyl-(D)-Ser-Gly-(4-guanidinobenzyl)amide hydrochloride], the Ki was found to be 13.1 µM.

Take `CCCCCCCCS(=O)(=O)NC(CO)C(=O)NCC(=O)NCc1ccc(NC(=N)N)cc1` (stereo not drawn) [WX-C302, n-Octyl-sulfonyl-(D)-Ser-Gly-(4-guanidinobenzyl)amide hydrochloride]: the inhibitory constant (Ki) amounted to 0.5 µM.

As to `N=C(N)Nc1ccc(CNC(=O)CNC(=O)C(CO)NC(=O)Cc2ccc(O)c(O)c2)cc1` (stereo not drawn) [WX-571, 3,4-Dihydroxyphenyl-acetyl-(D)-Ser-Gly-(4-guanidinobenzyl)amide hydrochloride], the Ki was 14.7 µM.

Consider `CC(=O)c1ccc(NC(=O)NC(CO)C(=O)NCC(=O)NCc2ccc(NC(=N)N)cc2)cc1` (stereo not drawn) [WX-C330, 4-Acetylphenyl-aminocarbonyl-(D)-Ser-Gly-(4-guanidinobenzyl)amide hydrochloride], for which the Ki was over 20 µM.

Consider `N=C(N)Nc1ccc(CNC(=O)CNC(=O)C(CO)NC(=O)Nc2ccc3c(c2)OCCO3)cc1` (stereo not drawn) [WX-C326, 2,3-Dihydro-1,4-benzodioxin-6-yl-aminocarbonyl-(D)-Ser-Gly-(4-guanidinobenzyl)amide hydrochloride], for which the inhibition constant (Ki) is over 20 µM.

As for `N=C(N)Nc1ccc(NNC(=O)CNC(=O)[C@@H](CO)NS(=O)(=O)Cc2ccccc2)cc1` [WX-600, N-[N′-guanidino-phenyl)-hydrazinocarbonyl-methyl]-3-hydroxy-2-phenyl-methanesulfonylamino-propionamide hydrochloride], the Ki is 2.1 µM.

Take `N=C(N)Nc1ccc(CNC(=O)CNC(=O)C(CO)NC(=O)NC23CC4CC(CC(C4)C2)C3)cc1` (stereo not drawn) [WX-C320, 1-Adamantyl-aminocarbonyl-(D)-Ser-Gly-(4-guanidinobenzyl)amide hydrochloride]: the Ki was over 20 µM.

As to `CCOC(=O)c1cccc(NC(=O)NC(CO)C(=O)NCC(=O)NCc2ccc(NC(=N)N)cc2)c1` (stereo not drawn) [WX-C312, 3-Ethoxycarbonylphenyl-aminocarbonyl-(D)-Ser-Gly-(4-guanidinobenzyl)amide hydrochloride], the Ki came out at 1.4 µM.

As for `CC1(C)C2CCC1(CS(=O)(=O)NC(CO)C(=O)NCC(=O)NCc1ccc(NC(=N)N)cc1)C(=O)C2` (stereo not drawn) [WX-C296, (−)-Camphor-10-sulfonyl-(D)-Ser-Gly-4-guanidinobenzyl)amide hydrochloride], the Ki was found to be 0.45 µM.

Consider `N=C(N)Nc1ccc(CNC(=O)CNC(=O)C(CO)NC(=O)Nc2ccc(Br)cc2Br)cc1` (stereo not drawn) [WX-C338, 2,4-Dibromophenyl-aminocarbonyl-(D)-Ser-Gly-(4-guanidinobenzyl)amide hydrochloride], for which the inhibition constant (Ki) is over 20 µM.

As to `N=C(N)Nc1ccc(CNC(=O)CNC(=O)C(CO)NC(=O)Nc2ccc(Oc3ccccc3)cc2)cc1` (stereo not drawn) [WX-C310, 4-Phenoxyphenyl-aminocarbonyl-(D)-Ser-Gly-(4-guanidinobenzyl)amide hydrochloride], the inhibitory constant (Ki) turned out to be 2 µM.

For `N=C(N)Nc1ccc(CNC(=O)CNC(=O)C(CO)NC(=O)Nc2cccc3ccccc23)cc1` (stereo not drawn) [WX-C328, 1-Naphthyl-aminocarbonyl-(D)-Ser-Gly-(4-guanidinobenzyl)amide hydrochloride], the Ki is over 20 µM.

Consider `COc1ccc(NC(=O)NC(CO)C(=O)NCC(=O)NCc2ccc(NC(=N)N)cc2)cc1` (stereo not drawn) [WX-C306, 4-Methoxyphenyl-aminocarbonyl-(D)-Ser-Gly-(4-guanidinobenzyl)amide hydrochloride], for which the Ki is 4.1 µM.

With `N=C(N)Nc1ccc(CNC(=O)CNC(=O)C(CO)NC(=O)Nc2cccc(Cl)c2Cl)cc1` (stereo not drawn) [WX-C334, 2,3-Dichlorophenyl-aminocarbonyl-(D)-Ser-Gly-(4-guanidinobenzyl)amide hydrochloride], the Ki is over 20 µM.

Take `N=C(N)Nc1ccc(CNC(=O)CNC(=O)C(CO)NC(=O)Nc2ccc3c(c2)OCO3)cc1` (stereo not drawn) [WX-C332, 3,4-Methylenedioxyphenyl-aminocarbonyl-(D)-Ser-Gly-(4-guanidinobenzyl)amide hydrochloride]: the inhibition constant Ki was over 20 µM.

For the molecule `N=C(N)Nc1ccc(CNC(=O)CNC(=O)C(CN)NS(=O)(=O)Cc2ccccc2)cc1` (stereo not drawn) [WX-M6, Benzylsulfonyl-(D)-Dap-Gly-(4-guanidinobenzyl)amide bis-hydrochloride], the Ki turned out to be 0.15 µM.

`N=C(N)Nc1ccc(CNC(=O)CNC(=O)C(CO)NC(=O)Nc2ccc([N+](=O)[O-])cc2)cc1` (stereo not drawn) [WX-C342, 4-Nitrophenyl-aminocarbonyl-(D)-Ser-Gly-(4-guanidinobenzyl)amide hydrochloride]: the Ki amounted to 4.9 µM.

For `N=C(N)Nc1ccc(CNC(=O)CNC(=O)C(CNC(=O)OCc2ccccc2)NS(=O)(=O)Cc2ccccc2)cc1` (centres unmarked) [WX-M5, benzylsulfonyl-(D)-Dap(Z)-Gly-(4-guanidinobenzyl)amide hydrochloride], the Ki was 0.5 µM.

On to `COc1cc(NC(=O)NC(CO)C(=O)NCC(=O)NCc2ccc(NC(=N)N)cc2)cc(OC)c1OC` (stereo not drawn) [WX-C308, 3,4,5-Tri-methoxyphenyl-aminocarbonyl-(D)-Ser-Gly-(4-guanidinobenzyl)amide hydrochloride], for which the Ki was over 20 µM.
